Results published in US11339171B2, “MDM2 inhibitors” (Gan & Lee Pharmaceuticals, priority 2017, dated 2022).
Several values for one entry are separate records, joined by “and”; a condition that tells them apart may be missing. Equal entries are not always repeated. Where two headings read alike, the source gives them in different places.

Experiments:
[1] = test system: human osteosarcoma cell line SJSA-1; assay: Inhibition of proliferation of human osteosarcoma cell line SJSA-1 (DAPI staining, In Cell Analyzer); settings: Homo sapiens, SJSA-1, 72 h, read-out: IC50 (nM), inhibitory activity on proliferation of human osteosarcoma cell line SJSA-1, SJSA-1, incubated 72 h
MDM2 = molecular target: T1, MDM2 (Homo sapiens, UniProt Q00987); assay: Inhibition test of MDM2-P53 (GST-MDM2, Biotin-P53, Anti-GST-Tb, SA-XL665); assay type: binding
T1 construct: made in house
T1 sequence (Q00987 whole entry): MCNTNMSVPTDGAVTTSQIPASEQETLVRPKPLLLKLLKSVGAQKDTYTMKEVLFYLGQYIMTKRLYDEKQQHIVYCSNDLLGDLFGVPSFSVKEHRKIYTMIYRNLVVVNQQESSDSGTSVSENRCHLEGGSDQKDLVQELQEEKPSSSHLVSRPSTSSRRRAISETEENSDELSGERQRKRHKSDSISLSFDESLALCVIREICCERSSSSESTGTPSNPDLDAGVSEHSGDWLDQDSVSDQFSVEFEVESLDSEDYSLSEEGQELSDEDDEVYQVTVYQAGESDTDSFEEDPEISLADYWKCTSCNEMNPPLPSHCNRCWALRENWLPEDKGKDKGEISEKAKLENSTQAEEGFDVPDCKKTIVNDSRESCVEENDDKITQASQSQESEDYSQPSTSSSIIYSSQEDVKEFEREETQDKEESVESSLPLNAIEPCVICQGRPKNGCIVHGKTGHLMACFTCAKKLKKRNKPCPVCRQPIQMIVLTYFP
Summary of the method: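 Binding was measured by TR-FRET with GST-MDM2 at 4 nM final in PBS with 0.1% BSA, 5 mM DTT and 1 mM AEBSF. Compounds were tested as twelve-point 5-fold dilutions and incubated with the detection mix for 90 min at 25 °C with shaking before plate-reader reading and curve fitting.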

[2] = Pharmacokinetics in ICR mice after intravenous and intragastric administration; assay type: in vivo; settings: for F*: PO 5 mg/kg vs IV 2 mg/kg; for MRT last: read-out: MRT(0-t); for MRT inf: read-out: MRT(0-∞); for Vd: read-out: Vz
Description: Experimental Example 3 Determination of the Pharmacokinetics of the Mdm2 Inhibitors of the Present Invention in Mice
ICR mice were used as the test animals, and the concentrations of the drugs in plasma of mice at different time points after intravenous administration and intragastric administration of the representative compounds were measured by a LC/MS/MS method, so as to study the pharmacokinetic behavior of the compounds of the present invention in mice and evaluate the pharmacokinetic characteristics thereof.
Some compounds prepared in Examples 1-180 of the present invention.
The control drug HDM201 was prepared by the method disclosed in patent No. CN104203952A.
Healthy adult ICR mice, male, 6-9 weeks old, weighing 20-30 g, purchased from Shanghai Xipuer-Bikai Laboratory Animal Co., Ltd., Animal Production License No.: SCXK (HU) 2013-0016
3.2.3 Preparation of Test Drugs
Intragastric or intravenous administration: an appropriate amount of sample was weighed, dissolved in 5% DMSO+40% PEG400+55% (10% HP-β-CD in Saline) to prepare a 0.5 mg/ml solution for intragastric or intravenous administration.
3.2.4 Administration of Test Drugs
Intravenous administration: for each test compound, 3 male ICR mice were administered intravenously at a dose of 2 mg/kg and an administration volume of […] after fasting overnight.
Intragastric administration: for each test compound, 3 male ICR mice were administered intragastrically at a dose of 5 mg/kg and an administration volume of […] after fasting overnight.
3.3 Experimental Operation
The collected plasma was stored at −80° C. before analysis. The plasma sample was analyzed by LC-MS/MS, and the sample was pretreated by protein precipitation method. The linear range of sample analysis was 1 to 2000 ng/ml. The lowest quantification limit was 1 ng/mL. WinNonlin (Pharsight, USA) was used to calculate the following pharmacokinetic parameters: area under the curve AUC(0-t), area under the curve AUC(0-∞), half-life t1/2, retention time MRT(0-∞), blood drug concentration Cmax, time taken to reach the peak blood drug concentration Tmax, bioavailability F, apparent volume of distribution Vz, and clearance rate CL.

[3] = IV 2 mg/kg, ICR mice, individual animal, 2 mg/kg
[4] = PO 5 mg/kg, ICR mice, individual animal, 5 mg/kg
[5] = male, ICR, mouse, plasma, iv, 2 mg/kg, IV 2 mg/kg, ICR mice, Mean
[6] = male, ICR, mouse, plasma, iv, 2 mg/kg, IV 2 mg/kg, ICR mice, Mean, read-out: AUC(0-t)
[7] = male, ICR, mouse, plasma, iv, 2 mg/kg, IV 2 mg/kg, ICR mice, Mean, read-out: Cmax
[8] = male, ICR, mouse, plasma, iv, 2 mg/kg, IV 2 mg/kg, ICR mice, Mean, read-out: Tmax
[9] = male, ICR, mouse, plasma, iv, 2 mg/kg, IV 2 mg/kg, ICR mice, Mean, read-out: t1/2 (converted)
[10] = male, ICR, mouse, plasma, iv, 2 mg/kg, IV 2 mg/kg, ICR mice, individual animal
[11] = male, ICR, mouse, plasma, iv, 2 mg/kg, IV 2 mg/kg, ICR mice, individual animal, read-out: AUC(0-t)
[12] = male, ICR, mouse, plasma, iv, 2 mg/kg, IV 2 mg/kg, ICR mice, individual animal, read-out: Cmax
[13] = male, ICR, mouse, plasma, iv, 2 mg/kg, IV 2 mg/kg, ICR mice, individual animal, read-out: Tmax
[14] = male, ICR, mouse, plasma, iv, 2 mg/kg, IV 2 mg/kg, ICR mice, individual animal, read-out: t1/2 (converted)
[15] = male, ICR, mouse, plasma, po, 5 mg/kg, PO 5 mg/kg, ICR mice, Mean
[16] = male, ICR, mouse, plasma, po, 5 mg/kg, PO 5 mg/kg, ICR mice, Mean, read-out: AUC(0-t)
[17] = male, ICR, mouse, plasma, po, 5 mg/kg, PO 5 mg/kg, ICR mice, Mean, read-out: Cmax
[18] = male, ICR, mouse, plasma, po, 5 mg/kg, PO 5 mg/kg, ICR mice, Mean, read-out: Tmax
[19] = male, ICR, mouse, plasma, po, 5 mg/kg, PO 5 mg/kg, ICR mice, Mean, read-out: t1/2 (converted)
[20] = male, ICR, mouse, plasma, po, 5 mg/kg, PO 5 mg/kg, ICR mice, individual animal
[21] = male, ICR, mouse, plasma, po, 5 mg/kg, PO 5 mg/kg, ICR mice, individual animal, read-out: AUC(0-t)
[22] = male, ICR, mouse, plasma, po, 5 mg/kg, PO 5 mg/kg, ICR mice, individual animal, read-out: Cmax
[23] = male, ICR, mouse, plasma, po, 5 mg/kg, PO 5 mg/kg, ICR mice, individual animal, read-out: Tmax
[24] = male, ICR, mouse, plasma, po, 5 mg/kg, PO 5 mg/kg, ICR mice, individual animal, read-out: t1/2 (converted)
[25] = male, ICR, mouse, plasma, po, 5 mg/kg, oral intragastric administration 5 mg/kg, read-out: AUC0-t

COc1ccc(-c2nc3c(n2C(C)C)[C@@]2(C(=O)Nc4cc(Cl)ccc42)N(c2cc(Cl)ccc2C)C3=O)c(OC)c1 [Example S-9, (S)-6-chloro-5′-(5-chloro-2-methylphenyl)-2′-(2,4-dimethoxyphenyl)-3′-isopropyl-3′H-spiro[dihydroindole-3,4′-pyrrolo[3,4-d]imidazole]-2,6′(5′H)-dione]
IC50 [1]: 7.39 nM
IC50 (MDM2): 2.38 nM
AUC(0-t) [2, 3]: 4.10704 µg·h/mL and 3.33444 µg·h/mL
AUC(0-∞) [2, 3]: 4.21493 µg·h/mL and 3.45237 µg·h/mL
CL [2, 3]: 0.4745 L/h/kg and 0.57931 L/h/kg
Cmax [2, 3]: 1.64399 µg/mL and 1.40326 µg/mL
MRT(0-t) [2, 3]: 1.47 h
MRT(0-∞) [2, 3]: 1.63 h and 1.68 h
Vz [2, 3]: 0.79338 L/kg and 1.05516 L/kg
t1/2 [2, 3]: 1.16 h and 1.26 h
F* ([2]; ICR mice): 79.30%
AUC(0-t) [2, 4]: 8.69239 µg·h/mL and 6.97633 µg·h/mL
AUC(0-∞) [2, 4]: 8.91144 µg·h/mL and 7.04892 µg·h/mL
Cmax [2, 4]: 2.00905 µg/mL and 1.91407 µg/mL
MRT(0-t) [2, 4]: 2.60 h and 2.68 h
MRT(0-∞) [2, 4]: 2.78 h and 2.75 h
Tmax [2, 4]: 1.00 h
t1/2 [2, 4]: 1.44 h and 1.22 h
AUC(0-inf) [2, 5]: 3.83 µg·h/mL
clearance [2, 5]: 0.525 L/h/kg
AUC(0-t) [2, 6]: 3.7 µg·h/mL
Cmax [2, 7]: 1.44 µg/mL
MRT last [2, 5]: 1.51 h
MRT inf [2, 5]: 1.73 h
Tmax [2, 8]: 0.083 h
Vd [2, 5]: 0.968 L/kg
half-life [2, 9]: 1.27 h
AUC(0-inf) [2, 10]: 3.83 µg·h/mL
clearance [2, 10]: 0.522 L/h/kg
AUC(0-t) [2, 11]: 3.65 µg·h/mL
Cmax [2, 12]: 1.27 µg/mL
MRT last [2, 10]: 1.58 h
MRT inf [2, 10]: 1.88 h
Tmax [2, 13]: 0.08 h
Vd [2, 10]: 1.05 L/kg
half-life [2, 14]: 1.4 h
AUC(0-inf) [2, 15]: 7.51 µg·h/mL
AUC(0-t) [2, 16]: 7.33 µg·h/mL
Cmax [2, 17]: 1.76 µg/mL
MRT last [2, 15]: 2.64 h
MRT inf [2, 15]: 2.82 h
Tmax [2, 18]: 1.33 h
half-life [2, 19]: 1.41 h
AUC(0-inf) [2, 20]: 6.56 µg·h/mL
AUC(0-t) [2, 21]: 6.32 µg·h/mL
Cmax [2, 22]: 1.37 µg/mL
MRT last [2, 20]: 2.65 h
MRT inf [2, 20]: 2.92 h
Tmax [2, 23]: 2 h
half-life [2, 24]: 1.57 h
AUC(0-t) [2, 25]: 7.33 µg·h/mL

COc1cc(OC)c(-c2nc3c(n2C(C)C)[C@@]2(C(=O)Nc4cc(Cl)ccc42)N(c2cc(Cl)ccc2C)C3=O)cn1 [Example S-11, (S)-6-chloro-5′-(5-chloro-2-methylphenyl)-2′-(4,6-dimethoxypyridin-3-yl)-3′-isopropyl-3′H-spiro[dihydroindole-3,4′-pyrrolo[3,4-d]imidazole]-2,6′(5′H)-dione]
IC50 [1]: 1.67 nM
IC50 (MDM2): 1.58 nM
AUC(0-t) [2, 3]: 3.57838 µg·h/mL and 4.22558 µg·h/mL
AUC(0-∞) [2, 3]: 3.68024 µg·h/mL and 4.8204 µg·h/mL
CL [2, 3]: 0.544 L/h/kg and 0.415 L/h/kg
Cmax [2, 3]: 1.37651 µg/mL and 1.51969 µg/mL
MRT(0-t) [2, 3]: 1.43 h and 1.81 h
MRT(0-∞) [2, 3]: 1.61 h and 2.70 h
Vz [2, 3]: 0.91 L/kg and 1.25 L/kg
t1/2 [2, 3]: 2.09 h
F* ([2]; ICR mice): 102.51%
AUC(0-t) [2, 4]: 8.53656 µg·h/mL and 11.5684 µg·h/mL
AUC(0-∞) [2, 4]: 8.81641 µg·h/mL and 11.78498 µg·h/mL
Cmax [2, 4]: 1.57302 µg/mL and 2.14469 µg/mL
MRT(0-t) [2, 4]: 2.87 h
MRT(0-∞) [2, 4]: 3.11 h and 3.05 h
Tmax [2, 4]: 2.00 h
t1/2 [2, 4]: 1.55 h and 1.33 h
AUC(0-inf) [2, 5]: 3.92 µg·h/mL
clearance [2, 5]: 0.524 L/h/kg
AUC(0-t) [2, 6]: 3.66 µg·h/mL
Cmax [2, 7]: 1.4 µg/mL
MRT last [2, 5]: 1.55 h
MRT inf [2, 5]: 1.95 h
Tmax [2, 8]: 0.5 h
Vd [2, 5]: 1.06 L/kg
half-life [2, 9]: 1.46 h
AUC(0-inf) [2, 10]: 3.25 µg·h/mL
clearance [2, 10]: 0.616 L/h/kg
AUC(0-t) [2, 11]: 3.17 µg·h/mL
Cmax [2, 12]: 1.3 µg/mL
MRT last [2, 10]: 1.4 h
MRT inf [2, 10]: 1.55 h
Tmax [2, 13]: 0.5 h
Vd [2, 10]: 1.02 L/kg
half-life [2, 14]: 1.15 h
AUC(0-inf) [2, 15]: 9.79 µg·h/mL
AUC(0-t) [2, 16]: 9.37 µg·h/mL
Cmax [2, 17]: 1.79 µg/mL
MRT last [2, 15]: 2.92 h
MRT inf [2, 15]: 3.27 h
Tmax [2, 18]: 1.33 h
half-life [2, 19]: 1.69 h
AUC(0-inf) [2, 20]: 8.77 µg·h/mL
AUC(0-t) [2, 21]: 8.02 µg·h/mL
Cmax [2, 22]: 1.65 µg/mL
MRT last [2, 20]: 2.96 h
MRT inf [2, 20]: 3.66 h
Tmax [2, 23]: 1 h
half-life [2, 24]: 2.18 h
AUC(0-t) [2, 25]: 9.37 µg·h/mL
half-life ([2]; male, ICR, mouse, plasma, po, 5 mg/kg, oral intragastric administration 5 mg/kg, read-out: half-life (converted)): 1.69 h
bioavailability ([2]; male, ICR, mouse, plasma, oral intragastric administration 5 mg/kg, read-out: bioavailability): 103%
